Reference: patent US8343536B2, “Biofilm-inhibiting medical products” (Cook Biotech Incorporated, priority 2007, dated 2013)

Legend:
E. coli (ATCC #25922) = test: Zone-of-inhibition measured by image analysis, coated SIS discs (Example 2); assay type: cell-based; conditions: 10 μg/cm^2 on SIS disc, 24 hours, n=3
Experimental: (§1) BisEDT (Molar ratio 1:1.5), BisBAL (1:1.5), and BisERY (1:1.5) (50 mg each) were obtained from Microbion, Inc. Small intestinal submucosa (SIS) was obtained and processed into 4-layer lyophilized sheets as described in Example 1. The sheets were subsequently cut into 15 mm discs (˜1.76 cm^2) using a disc punch. Bismuth thiols were resuspended in dimethyl sulfoxide (DMSO) and diluted to 0.35 μg/μl for coating. Discs were coated with the bismuth thiol solutions 50 μl of the appropriate solution per disc for a final concentration 10 μg/cm^2 (0.35 μg/μl*50 μl=17.5 μg/1.76 cm^2=10 μg/cm^2). The discs were subsequently placed in a lyophilizer overnight to remove the DMSO solvent. Control discs were prepared using 50 μl of DMSO without a bismuth thiol preparation. 3 bacteria were used for this experiment: S. aureus (ATCC #25983), P. aeruginosa (ATCC #27853), and E. coli (ATCC #25922). Bacteria was grown in Tryptic Soy Broth for 16-24 hours before placing a lawn on Tryptic Soy Agar in 100 mm Petri dishes.
(§2) Thirty samples were tested in total (3 bismuth thiol preparations @ n=3→9+1 control=10×3 bacteria=30). A lawn of one of the three bacteria investigated was swabbed onto the Tryptic Soy Agar. The bismuth thiol coated disc was rehydrated for ˜5 minutes in sterile saline and placed approximately in the center of the plate. Plates were incubated inverted for 24 hours at which time pictures were taken with a digital camera. Zones-of-inhibition were measured using image analysis software (Spot RT) by determining the distance of bacterial growth inhibition from the disc edge.

S. aureus (ATCC #25983) [1] = test: as above; assay type: cell-based; conditions: 10 μg/cm^2 on SIS disc, 24 hours, n=3
Experimental: as §1, §2

S. aureus (ATCC #25983) [2] = test: Zone-of-inhibition after ethylene oxide or E-beam sterilization of coated SIS discs (Example 4); assay type: cell-based
Experimental: BisEDT was obtained from Microbion, Inc. as previously described. Small intestinal submucosa (SIS) was obtained and processed into 4-layer lyophilized sheets as described in Example 1. The sheets were subsequently cut into 15 mm discs (˜1.76 cm^2) using a disc punch. BisEDT was resuspended in dimethyl sulfoxide (DMSO) and diluted to appropriate concentrations for coating. Discs were coated with the BisEDT solution at a final concentration of 0.35 μg/μl using 50 μl of the solution per disc for a final concentration of 10 μg/cm^2. The discs were subsequently placed in a lyophilizer overnight to remove the DMSO solvent. For the ethylene oxide sterilization compatibility experiment, 6 discs were coated with 10 μg/cm^2 BisEDT and packaged into 2 separate tyvek pouches with 3 discs per pouch. One pouch was placed in a drawer until use and left non-sterile and the other pouch was sterilized with low temperature ethylene oxide sterilization. For the E-beam sterilization, essentially the same process was performed except the discs were packaged in foil pouches and the samples were subjected to E-beam sterilization with a dose of ˜25 kGy. S. aureus (ATCC #25983) was used as the bacteria for this experiment. Bacteria was grown in Tryptic Soy Broth for 16-24 hours before placing a lawn on Tryptic Soy Agar in 100 mm Petri dishes. […]

mice = test: Mouse subcutaneous implant method, in vivo angiogenesis and tolerability of BisEDT coated SIS (Example 7); conditions: 10 or 100 μg/cm^2 on SIS, 3 weeks
Experimental: The Example was performed to compare the in vivo angiogenic response to SIS compared to 2 levels of BisEDT coated SIS. The model used to detect in vivo angiogenesis was the mouse subcutaneous implant method as generally described by Heeschen et al., Nat. Med. […]; 7:833-9.
BisEDT was obtained from Microbion, Inc. as previously described. All SIS based grafts were made from 4-layer lyophilized sheets as described in the previous Examples. Sample groups consisted of this material coated with 10 μg/cm^2 BisEDT or 100 μg/cm^2 BisEDT. Each material was cut into ten 15 mm discs. Nylon filters with 0.22 μm pores were sewn on to the top and bottom of each disc. Low temperature ethylene oxide sterilization was used for each sample.
Samples were implanted subcutaneously into the dorsal flanks of mice. After anesthesia using Ketamine (87 mg/kg) and Xylazine (13 mg/kg), a small incision was made on the posterior neck of the mouse and a dorsal subcutaneous cavity was created using blunt dissection with hemostats. This was followed by sample placement and closure of the incision with 4 interrupted stitches of 5-0 suture. Six mice per group underwent disc implantation. The implant remained in the mice for a period of 3 weeks followed by probing for capillary formation.
Mice were sacrificed using a double dose of anesthesia to ensure intact flow in vasculature. While the heart was still beating, the chest cavity was exposed, vena cava severed, and 10 ml of heparized saline injected into the left ventricle using a 23 ga butterfly infusion set to exsanguinate the mouse. After transferring syringes (while maintaining infusion needle in left ventricle), 4 ml of a fluorescent microsphere (yellow-green, 0.1 μm diameter, Molecular Probes, F-8803) suspension (1:20 dilution of stock suspension) was injected through the left ventricle resulting in perfusion of the entire vasculature. Care was taken to ensure no bubbles were introduced during the injections, as bubbles will cause micro-emboli obstructing consistent perfusion. […]

In the case of bismuth-1,2-ethanedithiol [BisEDT], the “Zone-of-inhibition, distance of bacterial growth inhibition from the disc edge” value (E. coli (ATCC #25922)) is reported as 1.28, the “Zone-of-inhibition, distance of bacterial growth inhibition from the disc edge” value (S. aureus (ATCC #25983) [1]) is reported as 6.83 and the “Zone-of-inhibition, visual” value (S. aureus (ATCC #25983) [2]; S. aureus, 10 μg/cm^2 on SIS disc, sterilized (ethylene oxide or E-beam ~25 kGy) and non-sterile) is reported as “effectiveness at creating a zone-of-inhibition”. The “Compatibility with sterilization technique” value (S. aureus (ATCC #25983) [2]; ethylene oxide vs E-beam (~25 kGy), zone-of-inhibition against S. aureus compared visually) was “E-beam sterilization exhibited greater compatibility with BisEDT than ethylene oxide sterilization”, the “Angiogenic potential of coated SIS” value (mice) was “neither level of BisEDT (10 or 100 μg/cm^2) coated onto the SIS affected the angiogenic potential” and the “Local toxicity at explant” value (mice) was “no visual evidence of local toxicity at explant”. The Systemic toxicity (mice) was “no observed symptoms of systemic toxicity”.
